# Values quoted from earlier work, collected in PMC9569940, “Discovery and In Vivo Efficacy of Trace Amine-Associated Receptor 1 (TAAR1) Agonist 4-(2-Aminoethyl)-N-(3,5-dimethylphenyl)piperidine-1-carboxamide Hydrochloride (AP163) for the Treatment of Psychotic Disorders” (International Journal of Molecular Sciences, 2022).
# Biological target: T1, TAAR1 (Homo sapiens, UniProt Q96RJ0)
# T1 construct: expressed in transfected cells; host or cells: HEK-293 cells, transient transfection
# T1 sequence (Q96RJ0 1-339): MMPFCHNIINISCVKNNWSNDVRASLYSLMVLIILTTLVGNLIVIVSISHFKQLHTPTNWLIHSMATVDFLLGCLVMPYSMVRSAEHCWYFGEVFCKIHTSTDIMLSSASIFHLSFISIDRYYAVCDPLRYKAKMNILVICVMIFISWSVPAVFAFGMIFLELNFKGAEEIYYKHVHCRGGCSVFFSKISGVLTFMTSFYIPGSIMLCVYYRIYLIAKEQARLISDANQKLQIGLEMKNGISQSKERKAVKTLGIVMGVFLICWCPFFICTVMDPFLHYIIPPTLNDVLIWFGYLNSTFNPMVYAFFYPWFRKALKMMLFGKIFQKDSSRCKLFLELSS
# Set-up: method as in PMID 11723224
# Settings: not tested in this paper; cited from earlier work
smiles,measurement,value
CCc1[nH]nc(C(=O)Nc2ccc([C@H]3CNCCO3)cc2)c1C [Ralmitaront],TAAR1 Activity (reference ligand),Active
